Columns and labels:
[1] = test system: F. nucleatum subsp. nucleatum ATCC 23726 (FNN23); assay: Determination of bactericidal effect by CFU spot assay; assay type: cell-based, Fusobacterium nucleatum subsp. nucleatum ATCC 23726; settings: 10 µM, 1 × 10^5 CFU/mL in MHB, spotting on BHI agar plates, up to 96 h; three replicates
Description: To investigate the bactericidal effects of PNAs an o.n. culture of FNN23 grown in ColB was diluted 1:50 in fresh ColB and grown to OD600 0.5. This culture was then diluted 1:2,500 to 1 × 10^5 CFU/mL in MHB, and 190 µL of the culture was dispensed into a transparent 96-well plate (Nunc, Thermo Fischer Scientific) together with 10 µL of respective 20× PNA stock or water and incubated at 37°C with 237 cpm shaking every 20 min. At the respective time points, 100 µL was taken out of the well, a 1:10 serial dilution series was prepared with 900 µL anoxic 1× PBS, and 5 µL of each dilution was spotted on BHI plates for CFU determination. Plates were incubated for 3 days at 37°C before taking out the plates of the anaerobic chamber for CFU counting.

[2] = test system: Salmonella enterica serovar Typhimurium SL1344; assay: Growth inhibition assay; assay type: cell-based; settings: 10 µM, MHB, 1 × 10^5 CFU/mL input, aerobic, 24 h
Description: Aerobic bacterial culture was conducted with E. coli K12 MG1655 (provided by D. Lee), E. coli Nissle 1917, and S. enterica serovar Typhimurium SL1344 (provided by D. Bumann, Biocenter Basel, Switzerland). The strains were streaked on lysogeny broth plates, incubated o.n. at 37°C and cultured in non-cation-adjusted MHB with aeration at 37°C and 220 rpm constant shaking.
To determine the MIC value, broth microdilutions were performed according to the standard protocol with some modifications ([119]). An overnight bacterial culture was diluted in a fresh ColB medium and grown to OD600 0.5 (mid-exponential phase). Fusobacteria were then diluted 1:2,500 or 1:250 in fresh MHB to obtain 1 × 10^5 CFU/mL or 1 × 10^6 CFU/mL as indicated. To determine the growth inhibition of P. gingivalis, an o.n. culture grown in BHI+ was diluted 1:1,500 in MHB to obtain 1 × 10^5 CFU/mL. E. coli K12, E. coli Nissle 1917, and S. enterica o.n. cultures grown in MHB were diluted 1:1,800 in fresh MHB to obtain 1 × 10^5 CFU/mL. […] Bacterial growth was monitored by measuring OD600 every 20 min with constant shaking in a plate reader (Biotek) under the normal atmospheric environment or positioned in the anaerobic chamber with double orbital shaking every 20 min prior to each measurement with 237 cpm at 37°C for 120 h.

Row | Substance | Bactericidal effect (viable cells, CFU) on FNN23 [1] | Effect on growth of S. enterica [2]
1 | (RXR)4XB-GACATAATTGT [FUS79, non-targeting (RXR)4XB-PNA 11-mer control, (RXR)4XB-…] | no visible CFUs detected on the agar plate after 96 h | no specific bactericidal effect
2 | RXRRXRRXRRXRXB [PNAscr] | no bactericidal effect | –
